Test results published in ChEMBL document CHEMBL5209567, “Membrane potential based assay for SLC2A9 using HEK-293 SLC2A9 OE cells” (2022).

What was measured:
[1] = biological target: T1, Solute carrier family 2, facilitated glucose transporter member 9 (Homo sapiens, UniProt Q9NRM0); assay: Substrate uptake by the Glucose Transporter Type 9 (GLUT9, SLC2A9) as assessed by the fluorescent FLIPR membrane potential dye in HEK-293 cells stably transfected with SLC2A9 isoform 2 (PubChem AID: 1794831); format: functional, cell-based, HEK293
T1 sequence (Q9NRM0 whole entry): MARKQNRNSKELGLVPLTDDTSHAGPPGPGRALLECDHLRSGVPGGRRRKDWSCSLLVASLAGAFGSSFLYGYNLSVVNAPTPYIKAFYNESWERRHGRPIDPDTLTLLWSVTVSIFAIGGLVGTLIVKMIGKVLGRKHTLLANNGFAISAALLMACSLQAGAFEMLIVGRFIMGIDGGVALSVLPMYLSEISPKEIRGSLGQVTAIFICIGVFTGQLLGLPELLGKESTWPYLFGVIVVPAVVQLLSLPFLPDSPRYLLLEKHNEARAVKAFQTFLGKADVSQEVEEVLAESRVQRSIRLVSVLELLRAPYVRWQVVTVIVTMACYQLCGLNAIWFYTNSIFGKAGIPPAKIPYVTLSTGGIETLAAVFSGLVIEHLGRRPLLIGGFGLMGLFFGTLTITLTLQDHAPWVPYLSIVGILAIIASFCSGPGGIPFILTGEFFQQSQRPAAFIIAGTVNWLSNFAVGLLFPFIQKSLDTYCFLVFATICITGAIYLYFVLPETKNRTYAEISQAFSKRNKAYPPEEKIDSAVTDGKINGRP

[2] = biological target: T1, Solute carrier family 2, facilitated glucose transporter member 9; assay: Substrate uptake by the Glucose Transporter Type 9 (GLUT9, SLC2A9) as assessed by the fluorescent FLIPR membrane potential dye in HEK-293 cells stably transfected with SLC2A9 isoform 1 (PubChem AID: 1794831); format: functional, cell-based, HEK293

EC50 ([1]; hek293) | EC50 [2] [µM] | EC50 ([1]; read-out: EC50) [µM] | SMILES
Ec50 Cannot Be Calculated For Isoform 2 | 300 | – | Oc1nc(O)c2nc(O)[nH]c2n1 [URIC ACID]
– | 1000 | 1000 | O=C(O)c1cc(=O)[nH]c(=O)[nH]1 [OROTIC ACID]
